{
  "source": "patent US6548448B2",
  "about": "“Delivery systems for cyclopropenes” (Rohm and Haas Company, priority 2001, dated 2003)",
  "format_in_all_cases": "physicochemical",
  "key": {"[1]": {"assay": "1-MCP release from high density polyethylene (HDPE) film exposed to 1-MCP gas, sealed jar", "conditions": "for Concentration of 1-MCP: HDPE film exposed to 2206 ppm 1-MCP for 2 hours, sealed quart jar", "protocol": "High density polyethylene (HDPE) film of 2 mil thickness measuring 4.5×2.75 inches was exposed to 2206 ppm 1-MCP (vol/vol) in the atmosphere of a sealed quart jar for 2 hours. The film was removed, allowed to stand in air for 5 minutes and then sealed in a fresh quart jar equipped with a sampling septum. The 1-MCP release characteristics of the film versus time were determined by periodically analyzing the atmosphere in the jar for 1-MCP. The analysis method was gas chromatography using a flame ionization detector."}, "[2]": {"assay": "1-MCP release from waxy, cast (Parafilm M) film containing 1-MCP/α-cyclodextrin complex in humid chamber", "conditions": "for Concentration of 1-MCP: waxy cast Parafilm M film with 0.5 g complex, 36 liter high humidity chamber", "protocol": "Parafilm® “M” film (2.0 grams, American National Can Corp.) was dissolved/dispersed in 12 grams of hexane. 1-MCP/α-cyclodextrin complex powder (0.5 grams) was mixed into this suspension and then the whole mixture was poured into a 3.5 inch diameter glass crystallizing dish to dry. The dish was placed in a 50° C. oven for 5 hrs. to dry and the resulting cast film was removed from the dish. This film was placed into a 36 liter volume high humidity chamber being careful not to allow the film to contact any water directly. The 1-MCP release characteristics of the film versus time were determined by periodically analyzing the atmosphere in the chamber for 1-MCP. The analysis method was gas chromatography using a flame ionization detector."}, "[3]": {"assay": "1-MCP release from polyvinyl alcohol (PVA) film containing 1-MCP/α-cyclodextrin complex in humid chamber", "conditions": "for Concentration of 1-MCP: PVA film with 0.05 g complex, 36 liter high humidity chamber", "protocol": "1-MCP/α-cyclodextrin complex powder (0.05 grams) was heat sealed into a 2×3.5 inch piece of 1.5 mil thick M 7061 polyvinyl alcohol (PVA) film (Chris Craft Corp.) using a Sealmaster 420 (Audion Elektro) heat sealer. This film was placed into a 36 liter volume high humidity chamber. […] The 1-MCP release characteristics of the film versus time were determined by periodically analyzing the atmosphere in the chamber for 1-MCP. The analysis method was gas chromatography using a flame ionization detector."}, "[4]": {"assay": "1-MCP release from low density polyethylene (LDPE) film containing 1-MCP/α-cyclodextrin complex in humid chamber", "conditions": "for Concentration of 1-MCP: LDPE film with 0.05 g complex, 36 liter high humidity chamber", "protocol": "1-MCP/α-CD complex powder (0.05 grams) was heat sealed into a 5.5×12 inch piece of 2.0 mil thick low density polyethylene (LDPE) film. This film was placed into a 36 liter volume high humidity chamber. […] The 1-MCP release characteristics of the film versus time were determined by periodically analyzing the atmosphere in the chamber for 1-MCP. The analysis method was gas chromatography using a flame ionization detector."}, "[5]": {"assay": "1-MCP release from wax paper exposed to 1-MCP gas, sealed jar", "conditions": "for Concentration of 1-MCP: wax paper exposed to 2206 ppm 1-MCP for 5 hours, sealed quart jar", "protocol": "Wax paper measuring 4.5×2.75 inches was exposed to 2206 ppm 1-MCP (vol/vol) in the atmosphere of a sealed quart jar for 5 hours. The film was removed, allowed to stand in air for 5 minutes and then sealed in a fresh quart jar equipped with a sampling septum. The 1-MCP release characteristics of the film versus time were determined by periodically analyzing the atmosphere in the jar for 1-MCP. The analysis method was gas chromatography using a flame ionization detector."}},
  "data": [
    {"smiles": "CC1=CC1", "note": "[Compound 1-MCP, 1-methylcyclopropene]", "values": [
      {"measurement": "Concentration of 1-MCP", "setting": "[1]; 0 sec.", "value": 0.0, "unit": "ppm"},
      {"measurement": "Concentration of 1-MCP", "setting": "[1]; 0.5 min.", "value": 3.0, "unit": "ppm"},
      {"measurement": "Concentration of 1-MCP", "setting": "[1]; 5 min.", "value": 8.0, "unit": "ppm"},
      {"measurement": "Concentration of 1-MCP", "setting": "[1]; 15 min.", "value": 9.6, "unit": "ppm"},
      {"measurement": "Concentration of 1-MCP", "setting": "[1]; 60 min.", "value": 11.0, "unit": "ppm"},
      {"measurement": "1-MCP release from the film (in words)", "setting": "[1]; HDPE film, sealed jar", "value": "significant release"},
      {"measurement": "Concentration of 1-MCP", "setting": "[2]; 0 min.", "value": 0.0, "unit": "ppm"},
      {"measurement": "Concentration of 1-MCP", "setting": "[2]; 5 min.", "value": 0.02, "unit": "ppm"},
      {"measurement": "Concentration of 1-MCP", "setting": "[2]; 20 min.", "value": 0.1, "unit": "ppm"},
      {"measurement": "Concentration of 1-MCP", "setting": "[2]; 35 min.", "value": 0.3, "unit": "ppm"},
      {"measurement": "Concentration of 1-MCP", "setting": "[2]; 60 min.", "value": 0.8, "unit": "ppm"},
      {"measurement": "Concentration of 1-MCP", "setting": "[2]; 90 min.", "value": 1.4, "unit": "ppm"},
      {"measurement": "1-MCP release from the film (in words)", "setting": "[2]; waxy cast film, high humidity chamber, no direct water contact", "value": "released from the LDPE film just by the water provided by humidity"},
      {"measurement": "Concentration of 1-MCP", "setting": "[3]; 0 min.", "value": 0.0, "unit": "ppm"},
      {"measurement": "Concentration of 1-MCP", "setting": "[3]; 5 min.", "value": 0.9, "unit": "ppm"},
      {"measurement": "Concentration of 1-MCP", "setting": "[3]; 25 min.", "value": 2.2, "unit": "ppm"},
      {"measurement": "Concentration of 1-MCP", "setting": "[3]; 45 min.", "value": 3.2, "unit": "ppm"},
      {"measurement": "Concentration of 1-MCP", "setting": "[3]; 90 min.", "value": 6.0, "unit": "ppm"},
      {"measurement": "Concentration of 1-MCP", "setting": "[3]; 20 hr.", "value": 17.0, "unit": "ppm"},
      {"measurement": "1-MCP release from the film (in words)", "setting": "[3]; PVA film, high humidity chamber, no direct water contact", "value": "released from the PVA film just by the water provided by humidity"},
      {"measurement": "Concentration of 1-MCP", "setting": "[4]; 0 min.", "value": 0.0, "unit": "ppm"},
      {"measurement": "Concentration of 1-MCP", "setting": "[4]; 5 min.", "value": 2.0, "unit": "ppm"},
      {"measurement": "Concentration of 1-MCP", "setting": "[4]; 20 min.", "value": 7.7, "unit": "ppm"},
      {"measurement": "Concentration of 1-MCP", "setting": "[4]; 40 min.", "value": 14.5, "unit": "ppm"},
      {"measurement": "Concentration of 1-MCP", "setting": "[4]; 60 min.", "value": 19.0, "unit": "ppm"},
      {"measurement": "1-MCP release from the film (in words)", "setting": "[4]; LDPE film, high humidity chamber, no direct water contact", "value": "released from the LDPE film just by the water provided by humidity"},
      {"measurement": "Concentration of 1-MCP", "setting": "[5]; 0 min.", "value": 0.0, "unit": "ppm"},
      {"measurement": "Concentration of 1-MCP", "setting": "[5]; 0.5 min.", "value": 0.3, "unit": "ppm"},
      {"measurement": "Concentration of 1-MCP", "setting": "[5]; 5 min.", "value": 0.9, "unit": "ppm"},
      {"measurement": "Concentration of 1-MCP", "setting": "[5]; 15 min.", "value": 0.9, "unit": "ppm"},
      {"measurement": "Concentration of 1-MCP", "setting": "[5]; 60 min.", "value": 0.9, "unit": "ppm"},
      {"measurement": "1-MCP release from the film (in words)", "setting": "[5]; wax paper, sealed jar", "value": "less release than Example 4, but still a significant amount"}
    ]}
  ]
}
